Reference: US20080280860A1, “Use of Vitamin D Compounds to Treat Endometriosis” (BioXell S.p.A., priority 2005, published 2008)

Legend:
Maximum tolerated dose = format: in vivo, Balb/c mice
[1] = system: human stromal endometrial cells; test: Cell chemotaxis assay (modified Boyden chamber); format: cell-based; settings: FIG. 10
Procedure: Human stromal cell preparation: tissue was gently minced into small pieces (1 to 2 mm^3) and incubated at 37° C. for 1 h with 0.1% type A collagenase. At the end of the incubation, single stromal cells were separated from large dumps of epithelium by a 10 min. period of differential sedimentation at unity gravity. The top 8 ml of medium, containing predominantly stromal cells, were then slowly removed and the cells were collected by centrifugation. The stromal-enriched fraction was washed twice in culture medium and allowed to adhere selectively to tissue culture dishes for 15 min. Thereafter, non-attached epithelial cells still present were removed and a purified stromal preparation was obtained on the surface of the culture dishes.
Endometrial stromal cells migration was evaluated by means of chemotaxis experiments in a 48-well modified Boyden chamber. With the migration assay, we assessed the ability of the cells to migrate toward a chemo-attractant on a two-dimensional substrate (in our case, collagen type IV). […] The cells that had migrated to the lower side of the filter were stained with Diff-Quick stain (VWR Scientific Products, Bridgeport, N.J.), and 5-8 unit fields per filter were counted at 160× magnification using a Zeiss microscope. […]

Question: Which results are given for C=C1/C(=C\C=C2/CCC[C@]3(C)C([C@@H](C)C/C=C/C(O)(CC)CC)=CC[C@@H]23)C[C@@H](O)C[C@@H]1F [Compound A, 1-alpha-fluoro-25-hydroxy-16,23E-diene-26,27-bishomo-20-epi-cholecalciferol]?
Answer: MTD (Maximum tolerated dose; Balb/c, mouse, in vivo, mice, ip, above it the compound becomes hypercalcemic): 0.1 mg/kg; associated toxicity compared with the other compounds tested (Maximum tolerated dose; Example 2): lower associated toxicity; reduction in migration with estrogen stimulation ([1]; 1 uM pretreatment 30 min, then β-Estradiol 24 h): approximately 50%; basal condition of migration ([1]; 1 uM, without estrogen stimulation): No effect
